These results are taken from paper PMC6017357, “In Vitro Inhibitory Effects of Synthetic Cannabinoid EAM-2201 on Cytochrome P450 and UDP-Glucuronosyltransferase Enzyme Activities in Human Liver Microsomes” (Molecules : A Journal of Synthetic Chemistry and Natural …, 2018).

For the data set, the target named is CYP2C19 (Homo sapiens, UniProt P33261). In words: CYP2C19-mediated [S]-mephenytoin 4′-hydroxylation in human liver microsomes (IC50 and time-dependent inhibition). The data set is classed as in vitro ADME. The arrangement: from tissue; host or cells: ultrapooled human liver microsomes. How it is done: The inhibitory potential (IC50 values) of EAM-2201 on CYP1A2, CYP2A6, CYP2C8, CYP2C9, CYP2C19, CYP2D6 and CYP3A4 were evaluated using ultrapooled human liver microsomes and a cocktail of seven CYP substrates followed by LC-tandem mass spectrometry (LC-MS/MS) as previously described. Each incubation mixture was prepared in a total volume of 100 µL as follows: pooled human liver microsomes (5.2 pmol CYP), 1.0 mM NADPH, 10 mM magnesium chloride, 50 mM potassium phosphate buffer (pH 7.4), various concentrations of EAM-2201 in DMSO (final concentrations of 0.1–50 µM, 0.5% DMSO) and a cocktail of seven CYP probe substrates in 50% acetonitrile (0.5% acetonitrile), including 50 µM phenacetin, 2.5 µM coumarin, 2.0 µM amodiaquine, 10 µM diclofenac, 100 µM [S]-mephenytoin, 5 µM bufuralol and 2.5 µM midazolam in 50% acetonitrile. After a 3-min preincubation at 37 °C, the reactions were initiated by adding NADPH and incubation proceeded for 15 min at 37 °C in a shaking water bath. The reactions were stopped by adding 100 µL of ice-cold methanol containing internal standards (^13C2,^15N-acetaminophen for acetaminophen and N-desethylamodiaquine; d9-1′-hydroxybufuralol for 4′-hydroxydiclofenac, 7-hydroxycoumarin, 4′-hydroxymephenytoin, 1′-hydroxybufuralol and 1′-hydroxy-midazolam). The incubation mixtures were centrifuged at 13,000× g for 4 min at 4 °C and 50 µL of each supernatant was diluted in 50 µL of water. Aliquots (5 µL) of the diluted supernatants were analyzed using LC-MS/MS. All assays were performed in triplicate and the mean values were used in calculations. […] Each reaction was initiated by adding the seven-CYP probe substrate cocktail described above.
Chain of CYP2C19 (P33261 whole entry): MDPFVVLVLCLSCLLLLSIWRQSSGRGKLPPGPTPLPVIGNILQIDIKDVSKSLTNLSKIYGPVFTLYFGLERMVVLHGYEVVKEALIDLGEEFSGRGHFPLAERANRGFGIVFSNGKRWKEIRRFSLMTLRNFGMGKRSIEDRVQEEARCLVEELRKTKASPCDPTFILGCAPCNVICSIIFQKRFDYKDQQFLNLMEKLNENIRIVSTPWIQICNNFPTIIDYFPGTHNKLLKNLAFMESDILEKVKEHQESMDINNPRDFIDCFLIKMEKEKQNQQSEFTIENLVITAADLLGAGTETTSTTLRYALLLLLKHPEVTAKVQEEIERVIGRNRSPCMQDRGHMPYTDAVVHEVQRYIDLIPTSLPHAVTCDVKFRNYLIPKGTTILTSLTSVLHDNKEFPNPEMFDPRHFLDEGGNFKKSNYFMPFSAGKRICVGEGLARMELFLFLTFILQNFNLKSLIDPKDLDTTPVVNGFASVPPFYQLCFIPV
The time-dependent inhibitory effects of EAM-2201 on CYP2C8, CYP2C9, CYP2C19 and CYP3A4 activities in ultrapooled human liver microsomes were evaluated using time- and concentration-dependent inhibition assays. Ultrapooled human liver microsomes (26.0 pmol CYP) were pre-incubated with various concentrations of EAM-2201 in DMSO (0.5% DMSO) in 50 mM potassium phosphate buffer (pH 7.4) in the presence of NADPH for predetermined time periods: 5–15 min for CYP2C8 activity, 5–20 min for CYP2C9 activity and 15–40 min for CYP2C19 and CYP3A4 activities. […] Aliquots (5 µL) of the diluted supernatants were analyzed using LC-MS/MS.
The metabolites formed from CYP substrates were simultaneously quantified using our previously described LC-MS/MS method. […]

In general, IC50 refers to the concentration at which inhibition is half-maximal. By kinact is commonly meant the maximal first-order rate at which the target is inactivated. In turn, `CCc1ccc(C(=O)c2cn(CCCCCF)c3ccccc23)c2ccccc12` [EAM-2201, (4-ethyl-1-naphthalenyl)[1-(5-fluoropentyl)-1H-indol-3-yl]-methanone] returned an IC50 of 10.9 µM. For the same compound, the “inactivation efficiency (kinact/Ki), CYP2C19” value (human liver microsomes) worked out at 115 M⁻¹ s⁻¹. For the same compound, the maximal inactivation rate constant (kinact) (human, ultrapooled human liver microsomes, pH 7.4, probe [S]-mephenytoin (100 µM), 4′-hydroxylation, read-out: kinact, time-dependent inhibition of CYP2C19 [S]-mephenytoin 4′-hydroxylase (converted)) was 0.00044 s⁻¹. The “inhibition of CYP2C19-mediated [S]-mephenytoin 4′-hydroxylation” value (up to 50 µM, without 30-min preincubation, human liver microsomes) is listed as “negligibly inhibited”.
